These results are taken from US20260285875A1, “INHIBITORS OF PARG” (858 Therapeutics, Inc., priority 2023, published 2026).

Where only a bound is given, the exact number is not on record here.

As usually defined, the IC50 is the concentration at which inhibition is half-maximal. Low values mean inhibition by little substance, high ones a need for much substance.

The assay deals with T1, cellular PARG (Homo sapiens, UniProt Q86W56).
T1 construct: endogenous in cells; host or cells: HeLa
T1 sequence (Q86W56 whole entry): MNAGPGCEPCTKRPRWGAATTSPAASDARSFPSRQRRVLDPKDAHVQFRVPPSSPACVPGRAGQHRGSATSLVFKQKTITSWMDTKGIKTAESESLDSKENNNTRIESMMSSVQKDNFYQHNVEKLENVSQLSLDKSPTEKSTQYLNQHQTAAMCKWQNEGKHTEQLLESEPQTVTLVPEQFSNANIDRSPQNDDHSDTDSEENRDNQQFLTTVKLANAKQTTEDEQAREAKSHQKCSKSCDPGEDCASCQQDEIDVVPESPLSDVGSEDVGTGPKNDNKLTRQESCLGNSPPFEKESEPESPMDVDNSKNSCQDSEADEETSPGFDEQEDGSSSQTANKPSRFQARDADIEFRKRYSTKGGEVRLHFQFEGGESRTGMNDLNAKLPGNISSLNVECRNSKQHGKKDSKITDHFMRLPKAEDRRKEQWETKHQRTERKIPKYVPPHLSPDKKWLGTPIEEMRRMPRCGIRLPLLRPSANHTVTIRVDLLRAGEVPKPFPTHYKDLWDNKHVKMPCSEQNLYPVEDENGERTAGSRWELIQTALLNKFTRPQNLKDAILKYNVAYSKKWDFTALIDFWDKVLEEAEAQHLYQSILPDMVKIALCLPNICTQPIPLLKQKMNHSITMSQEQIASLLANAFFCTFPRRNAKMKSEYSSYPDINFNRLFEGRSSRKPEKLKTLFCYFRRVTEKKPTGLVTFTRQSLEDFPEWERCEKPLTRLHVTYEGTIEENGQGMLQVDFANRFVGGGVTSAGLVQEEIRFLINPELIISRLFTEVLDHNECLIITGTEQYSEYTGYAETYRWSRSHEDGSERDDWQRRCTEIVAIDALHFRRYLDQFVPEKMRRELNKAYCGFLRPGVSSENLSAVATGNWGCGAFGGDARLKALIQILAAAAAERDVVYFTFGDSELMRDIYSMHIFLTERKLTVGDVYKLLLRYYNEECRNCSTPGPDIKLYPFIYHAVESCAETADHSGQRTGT
Put plainly: Nuclear PAR accumulation assay (immunofluorescence high-content imaging, MMS-treated HeLa cells). Particulars: 1 hour compound then MMS 50 μg/mL for an additional hour. The format is cell-based. In short, it runs like this: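 HeLa cells pretreated with compound for 1 h at 37° C, then given 50 μg/mL MMS for another hour. After methanol fixation, PAR was immunostained with DAPI nuclear counterstain; per-nucleus intensity and percent PAR-positive cells were imaged at 20× (≥1,000 cells/well). IC50 from four-parameter logistic fit.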
Consider `Cn1cc(CN2C(=O)c3cc(S(=O)(=O)NC4(C)CC4)ccc3N3C2=NCC3C#Cc2ccncn2)cn1` (stereo not shown) [Example 132, 4-((1-methyl-1H-pyrazol-4-yl)methyl)-N-(1-methylcyclopropyl)-5-oxo-1-(pyrimidin-4-ylethynyl)-1,2,4,5-tetrahydroimidazo[1,2-a]quinazoline-7-sulfonamide], for which the IC50 was 100 to 1000 nM.
On to `CN1C(=O)c2cc(S(=O)(=O)NC3(C)CC3)ccc2N2C1=NCC2C#Cc1ccc2cnn(C)c2c1` (stereo not shown) [Example 133, 4-methyl-1-((1-methyl-1H-indazol-6-yl)ethynyl)-N-(1-methylcyclopropyl)-5-oxo-1,2,4,5-tetrahydroimidazo[1,2-a]quinazoline-7-sulfonamide], for which the concentration for half-maximal inhibition (IC50) is below 100 nM.
For `CN1C(=O)c2cc(S(=O)(=O)NC3(C)CC3)ccc2N2C1=NCC2C#Cc1cncc(C#N)c1` (stereo not shown) [Example 134, 1-((5-cyanopyridin-3-yl)ethynyl)-4-methyl-N-(1-methylcyclopropyl)-5-oxo-1,2,4,5-tetrahydroimidazo[1,2-a]quinazoline-7-sulfonamide] the value was below 100 nM; for `Cn1cc(CN2C(=O)c3cc(S(=O)(=O)NC4(C)CC4)ccc3N3C2=NCC3COc2ccc(C#N)cc2)cn1` (stereo not shown) [Example 135, 1-((4-cyanophenoxy)methyl)-4-((1-methyl-1H-pyrazol-4-yl)methyl)-N-(1-methylcyclopropyl)-5-oxo-1,2,4,5-tetrahydroimidazo[1,2-a]quinazoline-7-sulfonamide], 100 to 1000 nM.
Take `Cn1cc(CN2C(=O)c3cc(S(=O)(=O)NC4(C)CC4)ccc3N3C2=NCC3COc2cccc(C#N)c2)cn1` (stereo not shown) [Example 136, 1-((3-cyanophenoxy)methyl)-4-((1-methyl-1H-pyrazol-4-yl)methyl)-N-(1-methylcyclopropyl)-5-oxo-1,2,4,5-tetrahydroimidazo[1,2-a]quinazoline-7-sulfonamide]: the half-maximal inhibitory concentration (IC50) was below 100 nM.
For `Cn1cc(CN2C(=O)c3cc(S(=O)(=O)NC4(C)CC4)ccc3N3C2=NCC3COc2ccccc2C#N)cn1` (stereo not shown) [Example 137, 1-((2-cyanophenoxy)methyl)-4-((1-methyl-1H-pyrazol-4-yl)methyl)-N-(1-methylcyclopropyl)-5-oxo-1,2,4,5-tetrahydroimidazo[1,2-a]quinazoline-7-sulfonamide] the value was 100 to 1000 nM; for `Cn1cc(CN2C(=O)c3cc(S(=O)(=O)NC4(C)CC4)ccc3N3C2=NCC3COc2cccc(Cl)c2)cn1` (stereo not shown) [Example 138, 1-((3-chlorophenoxy)methyl)-4-((1-methyl-1H-pyrazol-4-yl)methyl)-N-(1-methylcyclopropyl)-5-oxo-1,2,4,5-tetrahydroimidazo[1,2-a]quinazoline-7-sulfonamide], 100 to 1000 nM; for `C[C@@H]1CN=C2N(CC(F)F)C(=O)c3cc(S(=O)(=O)NC4(C)CC4)ccc3N21` [Example 139, (R)-4-(2,2-difluoroethyl)-1-methyl-N-(1-methylcyclopropyl)-5-oxo-1,2,4,5-tetrahydroimidazo[1,2-a]quinazoline-7-sulfonamide], 100 to 1000 nM.
For `Cn1cc(CN2C(=O)c3cc(S(=O)(=O)NC4(C)CC4)ccc3N3C2=NC[C@H]3C#Cc2cnn(C)n2)cn1` [Example 140, (R)-4-((1-methyl-1H-pyrazol-4-yl)methyl)-1-((2-methyl-2H-1,2,3-triazol-4-yl)ethynyl)-N-(1-methylcyclopropyl)-5-oxo-1,2,4,5-tetrahydroimidazo[1,2-a]quinazoline-7-sulfonamide], the IC50 is below 100 nM.
`Cn1cc(CN2C(=O)c3cc(S(=O)(=O)NC4(C)CC4)ccc3N3C2=NC[C@H]3COc2ccn(C)n2)cn1` [Example 141, (S)-1-(((1-methyl-1H-pyrazol-3-yl)oxy)methyl)-4-((1-methyl-1H-pyrazol-4-yl)methyl)-N-(1-methylcyclopropyl)-5-oxo-1,2,4,5-tetrahydroimidazo[1,2-a]quinazoline-7-sulfonamide] came in with a concentration for half-maximal inhibition (IC50) of 100 to 1000 nM.
Take `CN1C(=O)c2cc(S(=O)(=O)NC3(C)CC3)ccc2N2C1=NC[C@H]2C#Cc1ccc2nn(C)cc2c1` [Example 142, (R)-4-methyl-1-((2-methyl-2H-indazol-5-yl)ethynyl)-N-(1-methylcyclopropyl)-5-oxo-1,2,4,5-tetrahydroimidazo[1,2-a]quinazoline-7-sulfonamide]: the IC50 was below 100 nM.
For `Cn1cc(CN2C(=O)c3cc(S(=O)(=O)NC4(C)CC4)ccc3N3C2=NCC3COc2ccc(Cl)cc2)cn1` (stereo not shown) [Example 143, 1-((4-chlorophenoxy)methyl)-4-((1-methyl-1H-pyrazol-4-yl)methyl)-N-(1-methylcyclopropyl)-5-oxo-1,2,4,5-tetrahydroimidazo[1,2-a]quinazoline-7-sulfonamide] the value was 100 to 1000 nM; for `Cn1cc(CN2C(=O)c3cc(S(=O)(=O)NC4(C)CC4)ccc3N3C2=NC[C@H]3c2ccccc2)cn1` [Example 144, (R)-4-((1-methyl-1H-pyrazol-4-yl)methyl)-N-(1-methylcyclopropyl)-5-oxo-1-phenyl-1,2,4,5-tetrahydroimidazo[1,2-a]quinazoline-7-sulfonamide], below 100 nM.
Regarding `Cn1cc(CN2C(=O)c3cc(S(=O)(=O)NC4(C)CC4)ccc3N3C2=N[C@H]2CCCC[C@H]23)cn1` [Example 145, (7aS,11aR)-6-((1-methyl-1H-pyrazol-4-yl)methyl)-N-(1-methylcyclopropyl)-5-oxo-5,6,7a,8,9,10,11,11a-octahydrobenzo[4,5]imidazo[1,2-a]quinazoline-3-sulfonamide], the IC50 is below 100 nM.
The compound `C[C@@H]1CN=C2N(Cc3cnn(C)c3)C(=O)c3cc(S(=O)(=O)NC4(C)CC4)cc(N4CC(C)(C#N)C4)c3N21` [Example 146, (R)-9-(3-cyano-3-methylazetidin-1-yl)-1-methyl-4-((1-methyl-1H-pyrazol-4-yl)methyl)-N-(1-methylcyclopropyl)-5-oxo-1,2,4,5-tetrahydroimidazo[1,2-a]quinazoline-7-sulfonamide] came in with a half-maximal inhibitory concentration (IC50) of 1000 to 10000 nM.
Compound `CN1C(=O)c2cc(S(=O)(=O)NC3(C)CC3)ccc2N2C1=NC[C@H]2C#Cc1ccc2cn(C)nc2c1` [Example 147, (R)-4-methyl-1-((2-methyl-2H-indazol-6-yl)ethynyl)-N-(1-methylcyclopropyl)-5-oxo-1,2,4,5-tetrahydroimidazo[1,2-a]quinazoline-7-sulfonamide] came in with an IC50 below 100 nM.
Regarding `CN1C(=O)c2cc(S(=O)(=O)NC3(C)CC3)ccc2N2C1=NC[C@H]2C#Cc1ccc2c(cnn2C)c1` [Example 148, (R)-4-methyl-1-((1-methyl-1H-indazol-5-yl)ethynyl)-N-(1-methylcyclopropyl)-5-oxo-1,2,4,5-tetrahydroimidazo[1,2-a]quinazoline-7-sulfonamide], the concentration for half-maximal inhibition (IC50) was below 100 nM.
`CN1C(=O)c2cc(S(=O)(=O)NC3(C)CC3)ccc2N2C1=NC[C@H]2C#Cc1cnc2cccnn12` [Example 149, (R)-1-(imidazo[1,2-b]pyridazin-3-ylethynyl)-4-methyl-N-(1-methylcyclopropyl)-5-oxo-1,2,4,5-tetrahydroimidazo[1,2-a]quinazoline-7-sulfonamide] had an IC50 below 100 nM.
Consider `Cn1cc(CN2C(=O)c3cc(S(=O)(=O)NC4(C)CC4)ccc3N3C2=NCC3COc2ccon2)cn1` (stereo not shown) [Example 150, 1-((isoxazol-3-yloxy)methyl)-4-((1-methyl-1H-pyrazol-4-yl)methyl)-N-(1-methylcyclopropyl)-5-oxo-1,2,4,5-tetrahydroimidazo[1,2-a]quinazoline-7-sulfonamide], for which the IC50 was below 100 nM.
Regarding `Cn1cc(CN2C(=O)c3cc(S(=O)(=O)NC4(C)CC4)ccc3N3C2=NCC3COc2ccccc2F)cn1` (stereo not shown) [Example 151, 1-((2-fluorophenoxy)methyl)-4-((1-methyl-1H-pyrazol-4-yl)methyl)-N-(1-methylcyclopropyl)-5-oxo-1,2,4,5-tetrahydroimidazo[1,2-a]quinazoline-7-sulfonamide], the IC50 is below 100 nM.
`CN(C)C1(C#C[C@@H]2CN=C3N(CC4(F)CC4)C(=O)c4cc(S(=O)(=O)NC5(C)CC5)ccc4N32)CC1` [Example 152, (R)-1-((1-(dimethylamino)cyclopropyl)ethynyl)-4-((1-fluorocyclopropyl)methyl)-N-(1-methylcyclopropyl)-5-oxo-1,2,4,5-tetrahydroimidazo[1,2-a]quinazoline-7-sulfonamide]: the IC50 was below 100 nM.
In the case of `C#C[C@@H]1CN=C2N(Cc3cnc(C)o3)C(=O)c3cc(S(=O)(=O)NC4(C)CC4)ccc3N21` [Example 153, (R)-1-ethynyl-N-(1-methylcyclopropyl)-4-((2-methyloxazol-5-yl)methyl)-5-oxo-1,2,4,5-tetrahydroimidazo[1,2-a]quinazoline-7-sulfonamide], the IC50 is below 100 nM.
In turn, `Cn1cc(CN2C(=O)c3cc(S(=O)(=O)NC4(C)CC4)ccc3N3C[C@H](COCc4ccccc4)N=C23)cn1` [Example 154, (R)-2-((benzyloxy)methyl)-4-((1-methyl-1H-pyrazol-4-yl)methyl)-N-(1-methylcyclopropyl)-5-oxo-1,2,4,5-tetrahydroimidazo[1,2-a]quinazoline-7-sulfonamide] returned an IC50 below 100 nM.
Regarding `Cn1cc(CN2C(=O)c3cc(S(=O)(=O)NC4(C)CC4)ccc3N3C[C@H](c4ccccc4)N=C23)cn1` [Example 155, (S)-4-((1-methyl-1H-pyrazol-4-yl)methyl)-N-(1-methylcyclopropyl)-5-oxo-2-phenyl-1,2,4,5-tetrahydroimidazo[1,2-a]quinazoline-7-sulfonamide], the IC50 was below 100 nM.
`C#C[C@H]1CN2C(=N1)N(Cc1cnn(C)c1)C(=O)c1cc(S(=O)(=O)NC3(C)CC3)ccc12` [Example 156, (S)-2-ethynyl-4-((1-methyl-1H-pyrazol-4-yl)methyl)-N-(1-methylcyclopropyl)-5-oxo-1,2,4,5-tetrahydroimidazo[1,2-a]quinazoline-7-sulfonamide]: the IC50 lay in the range of 100 to 1000 nM.
